Measured values published in ChEMBL document CHEMBL1121861, “Mammalian metabolism of phencyclidine” (J Med Chem, 1981).

What was measured:
Canis familiaris = species on record: Canis familiaris; test: Compound was evaluated for the mean locomotor activity ([…]) by the difference in the counts between postinjection and preinjection activities.; assay type: functional, Canis lupus familiaris
[1] = Half-life determined in the urine of monkey; assay type: ADME; conditions: simiiformes
[2] = Half-life determined in the urine of dog; assay type: ADME, organism-based, Canis lupus familiaris

Row | SMILES | Activity (Canis familiaris) | half-life [1] | half-life [2]
1 | Cl.O=C(O)CCCCNC1(c2ccccc2)CCCCC1 | -1063 |  | 
2 | COC(=O)CCCCNC1(c2ccccc2)CCCCC1.Cl | -1418 |  | 
3 | Cl.O=C(O)CCCCNC1(c2ccccc2)CCCCC1.c1ccc(C2(N3CCCCC3)CCCCC2)cc1 | 2478 |  | 
4 | COC(=O)CCCCNC1(c2ccccc2)CCCCC1.Cl.c1ccc(C2(N3CCCCC3)CCCCC2)cc1 | 2388 |  | 
5 | Cl.c1ccc(C2(N3CCCCC3)CCCCC2)cc1 [PHENCYCLIDINE HYDROCHLORIDE] | 3062 | 2.36 h | 2.86 h
